Source: patent US6337417B1, “N-phenyltetrahydrophthalamic acid derivatives, methods of producing same, and herbicides containing same as effective components” (Central Glass Co., Ltd., priority 1994, dated 2002)

Legend:
Assay type in all cases: in vivo
Design in all cases: key: 5: completely killed; 4: seriously injured; 3: considerably injured; 2: somewhat injured; 1: slightly injured; 0: not injured (normally grown)
[1] = tested on: aobiyu (slender amaranth, Amaranthus viridis); assay: Experiment 8 foliage treatment: aobiyu; details: foliage spray of wettable powder suspension, evaluated 4 weeks after treatment
Procedure: (§1) Upon seedling stage (two- or three-leaved stage) of rice, cockspur (Panicum crus-galli), garden radish, aobiyu (slender amaranth, Amaranthus viridis) and mehishiba (henry crabgrass, Digitaria cliaris) which were grown on a cultivated soil put in pots of 1/15500 ares, a selected compound obtained in a manner analogous to Example 14, in suspended wettable powder, was sprayed to each plant. After that, the pots were kept in a glass chamber to allow each plant to grow, and after the lapse of 4 weeks from the treatment with the selected compounds the herbicidal effects were evaluated. The evaluation of the herbicidal effects was similarly conducted as to that of Experiment 1.

[2] = tested on: cockspur (Panicum crus-galli); assay: Experiment 8 foliage treatment: cockspur; details: foliage spray of wettable powder suspension, evaluated 4 weeks after treatment
Procedure: as §1

[3] = tested on: nobie (barnyardgrass, Echinochloa spp.); assay: Experiment 7 flooded soil treatment: nobie; details: evaluated 4 weeks after treatment
Description: (§2) Paddy soil (clay loam) was put into a pot so as to have a surface area of 1/15500 ares. Uniformly mixed seeds of several kinds of weeds, viz., nobie (barnyardgrass, Echinochloa spp.), broad-leaved weeds, hotarui (bulrush, Scirpus juncoides) and tamagayatsuri (small-flowered umbrellaplant, Cyperus difformis), were sown in the surface layer of the soil in each pot, and then paddy rice seedlings at the two- or three-leaved stage were transplanted into each pot to a depth of 2 cm, and water was fed into each pot so as to provide a 3 cm deep water layer on the soil surface. After 3 days, in other words at the initial stage of germination of nobie (barnyardgrass, Echinochloa spp.), a predetermined amount of a selected compound obtained in a manner analogous to Example 14 in the form of diluted aqueous solution was dropped into the water layer in each pot. After that, the pots were kept in a glass chamber to allow the paddy rice and the weeds to grow, and after the lapse of 4 weeks from the treatment with the selected compounds, the herbicidal effects and the degree of injury to the paddy rice were evaluated. The evaluation of the herbicidal effects was similarly conducted as that of Experiment 1.

[4] = tested on: tamagayatsuri (small-flowered umbrellaplant, Cyperus difformis); assay: Experiment 7 flooded soil treatment: tamagayatsuri; details: evaluated 4 weeks after treatment
Description: as §2

[5] = tested on: onamomi (heartleaf cocklebur, Xanthium strumarium); assay: Experiment 9 foliage treatment: onamomi; details: foliage spray of wettable powder suspension, evaluated 4 weeks after treatment
Procedure: as §1, with “ichibi (velvetleaf, Abutilon theophrasti), onamomi (heartleaf cocklebur, Xanthium strumarium) (4L stage), noasagao (blue morningglory, Ipomoea indica)” for “rice, cockspur (Panicum crus-galli), garden radish, aobiyu (slender amaranth, Amaranthus viridis)”, “ooinutade (pale smartweed, Persicaria lapathifolia)” for “mehishiba (henry crabgrass, Digitaria cliaris)”, “1/8850” for “1/15500”, “as” for “as to”

[6] = tested on: rice; assay: Experiment 8 foliage treatment: rice; details: foliage spray of wettable powder suspension, evaluated 4 weeks after treatment
Procedure: as §1

[7] = tested on: garden radish; assay: Experiment 8 foliage treatment: garden radish; details: foliage spray of wettable powder suspension, evaluated 4 weeks after treatment
Procedure: as §1

[8] = tested on: paddy rice; assay: Experiment 7 flooded soil treatment: injury to paddy rice; details: evaluated 4 weeks after treatment
Description: as §2

[9] = tested on: broad-leaved weeds; assay: Experiment 7 flooded soil treatment: broad-leaved weeds; details: evaluated 4 weeks after treatment
Description: as §2

[10] = tested on: ooinutade (pale smartweed, Persicaria lapathifolia); assay: Experiment 9 foliage treatment: ooinutade; details: foliage spray of wettable powder suspension, evaluated 4 weeks after treatment
Procedure: as §1, with “ichibi (velvetleaf, Abutilon theophrasti), onamomi (heartleaf cocklebur, Xanthium strumarium) (4L stage), noasagao (blue morningglory, Ipomoea indica)” for “rice, cockspur (Panicum crus-galli), garden radish, aobiyu (slender amaranth, Amaranthus viridis)”, “ooinutade (pale smartweed, Persicaria lapathifolia)” for “mehishiba (henry crabgrass, Digitaria cliaris)”, “1/8850” for “1/15500”, “as” for “as to”

[11] = tested on: noasagao (blue morningglory, Ipomoea indica); assay: Experiment 9 foliage treatment: noasagao; details: foliage spray of wettable powder suspension, evaluated 4 weeks after treatment
Procedure: as §1, with “ichibi (velvetleaf, Abutilon theophrasti), onamomi (heartleaf cocklebur, Xanthium strumarium) (4L stage), noasagao (blue morningglory, Ipomoea indica)” for “rice, cockspur (Panicum crus-galli), garden radish, aobiyu (slender amaranth, Amaranthus viridis)”, “ooinutade (pale smartweed, Persicaria lapathifolia)” for “mehishiba (henry crabgrass, Digitaria cliaris)”, “1/8850” for “1/15500”, “as” for “as to”

[12] = tested on: hotarui (bulrush, Scirpus juncoides); assay: Experiment 7 flooded soil treatment: hotarui; details: evaluated 4 weeks after treatment
Description: as §2

[13] = tested on: mehishiba (henry crabgrass, Digitaria cliaris); assay: Experiment 8 foliage treatment: mehishiba; details: foliage spray of wettable powder suspension, evaluated 4 weeks after treatment
Procedure: as §1

[14] = tested on: ichibi (velvetleaf, Abutilon theophrasti); assay: Experiment 9 foliage treatment: ichibi; details: foliage spray of wettable powder suspension, evaluated 4 weeks after treatment
Procedure: as §1, with “ichibi (velvetleaf, Abutilon theophrasti), onamomi (heartleaf cocklebur, Xanthium strumarium) (4L stage), noasagao (blue morningglory, Ipomoea indica)” for “rice, cockspur (Panicum crus-galli), garden radish, aobiyu (slender amaranth, Amaranthus viridis)”, “ooinutade (pale smartweed, Persicaria lapathifolia)” for “mehishiba (henry crabgrass, Digitaria cliaris)”, “1/8850” for “1/15500”, “as” for “as to”

Compound	Herbicidal Effect aobiyu ([1]; 40 g/10a)	Herbicidal Effect aobiyu ([1]; 80 g/10a)	Herbicidal Effect cockspur ([2]; 40 g/10a)	Herbicidal Effect cockspur ([2]; 80 g/10a)	Herbicidal Effect nobie ([3]; 6.25 g/10a)	Herbicidal Effect nobie ([3]; 12.5 g/10a)	Herbicidal Effect tamagayatsuri ([4]; 6.25 g/10a)	Herbicidal Effect tamagayatsuri ([4]; 12.5 g/10a)	Herbicidal Effet onamomi ([5]; 4 g/10a)	Herbicidal Effet onamomi ([5]; 8 g/10a)	Herbicidal Effect rice ([6]; 40 g/10a)	Herbicidal Effect rice ([6]; 80 g/10a)	Herbicidal Effect garden radish ([7]; 40 g/10a)	Herbicidal Effect garden radish ([7]; 80 g/10a)	Injury of Paddy ([8]; 6.25 g/10a)	Injury of Paddy ([8]; 12.5 g/10a)	Herbicidal Effect broad-leaved weed ([9]; 6.25 g/10a)	Herbicidal Effect broad-leaved weed ([9]; 12.5 g/10a)	Herbicidal Effet ooinutade ([10]; 4 g/10a)	Herbicidal Effet ooinutade ([10]; 8 g/10a)	also measured
C#CC(C)Oc1cc(N(C(=O)C2=C(C(=O)OC)CCCC2)C(=O)c2cccs2)c(F)cc1Cl (racemic) [compound 91, N-[4-chloro-2-fluoro-5-(1-methylproparzyloxy)phenyl]-N-(2-thiophenecarboxy)-3,4,5,6-tetrahydrophthalamic acid methyl ester]	5	5	1	1	5	5	5	5	4	5	1	1	5	5	0	0.5	5	5	5	5	Herbicidal Effet noasagao ([11]; 4 g/10a): 4; Herbicidal Effet noasagao ([11]; 8 g/10a): 5; Herbicidal Effect hotarui ([12]; 6.25 g/10a): 4; Herbicidal Effect hotarui ([12]; 12.5 g/10a): 5; Herbicidal Effect mehishiba ([13]; 40 g/10a): 1; Herbicidal Effect mehishiba ([13]; 80 g/10a): 1; Herbicidal Effet ichibi ([14]; 4 g/10a): 5; Herbicidal Effet ichibi ([14]; 8 g/10a): 5
C#CC(C)Oc1cc(N(C(=O)C2=C(C(=O)OC)CCCC2)C(=O)c2ccsc2)c(F)cc1Cl (stereo not shown) [Compound No. 100]	5	5	1	1	5	5	5	5	5	5	1	1	5	5	0.5	0.5	5	5	5	5	Herbicidal Effet noasagao ([11]; 4 g/10a): 5; Herbicidal Effet noasagao ([11]; 8 g/10a): 5; Herbicidal Effect hotarui ([12]; 6.25 g/10a): 5; Herbicidal Effect hotarui ([12]; 12.5 g/10a): 5; Herbicidal Effect mehishiba ([13]; 40 g/10a): 1; Herbicidal Effect mehishiba ([13]; 80 g/10a): 1; Herbicidal Effet ichibi ([14]; 4 g/10a): 5; Herbicidal Effet ichibi ([14]; 8 g/10a): 5
C#CC(C)Oc1cc(N(C(=O)C2=C(C(=O)OC)CCCC2)C(=O)c2ccc(Cl)s2)c(F)cc1Cl (stereo not shown) [compound 97]	4	5	1	1	5	5	4	4	4	4	1	1	5	5	0	0	5	5	4	5	Herbicidal Effet noasagao ([11]; 4 g/10a): 4; Herbicidal Effet noasagao ([11]; 8 g/10a): 4; Herbicidal Effect hotarui ([12]; 6.25 g/10a): 4; Herbicidal Effect hotarui ([12]; 12.5 g/10a): 4; Herbicidal Effect mehishiba ([13]; 40 g/10a): 1; Herbicidal Effect mehishiba ([13]; 80 g/10a): 1; Herbicidal Effet ichibi ([14]; 4 g/10a): 5; Herbicidal Effet ichibi ([14]; 8 g/10a): 5
C#CC(C)Oc1cc(N(C(=O)C2=C(C(=O)OCCCC)CCCC2)C(=O)c2ccsc2)c(F)cc1Cl (stereo not shown) [compound 102]	5	5	1	1	5	5	5	5	5	5	1	1	5	5	0.5	0.5	5	5	4	5	Herbicidal Effet noasagao ([11]; 4 g/10a): 4; Herbicidal Effet noasagao ([11]; 8 g/10a): 5; Herbicidal Effect hotarui ([12]; 6.25 g/10a): 4; Herbicidal Effect hotarui ([12]; 12.5 g/10a): 4; Herbicidal Effect mehishiba ([13]; 40 g/10a): 1; Herbicidal Effect mehishiba ([13]; 80 g/10a): 1; Herbicidal Effet ichibi ([14]; 4 g/10a): 5; Herbicidal Effet ichibi ([14]; 8 g/10a): 5
